Experimental data as given in ChEMBL document CHEMBL1201862, “PubChem BioAssay data set” (2004).
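Where inhibition never reached the appropriate level, the endpoint shown equals the highest concentration tested. Otherwise, values were interpolated linearly from a five-concentration, 48-hour dose response in 96-well plates. Abbreviation: GI50, concentration required for 50% inhibition of growth.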 Calls of active or inactive are those of the source. Rule as the data show it: active = GI50 up to about 1.1 µM and inactive = higher.

Legend:
Assay in all cases: growth of human tumour cells (NCI), 48 h
[1] = tested on: 786-0
[2] = tested on: A498
[3] = tested on: ACHN
[4] = tested on: CAKI-1
[5] = tested on: HT-29
[6] = tested on: KM-20L2
[7] = tested on: M14
[8] = tested on: RXF 393
[9] = tested on: SF-295
[10] = tested on: SF-539
[11] = tested on: SK-MEL-2
[12] = tested on: UACC-62
[13] = tested on: HCT-116
[14] = tested on: NCI-H226
[15] = tested on: SK-MEL-28
[16] = tested on: Hs-578T
[17] = tested on: NCI/ADR-RES
[18] = tested on: PC-3
[19] = tested on: SR
[20] = tested on: T47D

Measured: GI50

O=c1[nH]c(=O)n(C2CC(O)C(CO)O2)cc1COCC(F)(F)F (stereo not drawn)
inactive: [1] > 100 µM | [2] > 100 µM | [3] > 100 µM | [4] > 100 µM | [5] > 100 µM | [6] > 100 µM | [7] > 100 µM | [8] > 100 µM | [9] > 100 µM | [10] > 100 µM | [11] > 100 µM | [12] > 100 µM

CC(C)(C)/N=C1/CC(C)(C)c2ccccc2/C(=N\c2ccccc2)S1
inactive: [1] 39.4 µM | [2] 43 µM | [3] 28.2 µM | [4] 40.2 µM | [13] 33.4 µM | [5] 35 µM | [6] 31.8 µM | [7] 39.5 µM | [14] 47.3 µM | [8] 21.4 µM | [9] 32.4 µM | [10] 60.4 µM | [15] 37.4 µM | [11] 34.4 µM | [12] 27 µM

O=C(CCC(=O)Nc1ccc(Cl)c(Cl)c1)CC(=O)c1ccc(Cl)cc1
inactive: [1] > 100 µM | [2] > 100 µM | [3] > 100 µM | [4] > 100 µM | [13] > 100 µM | [5] > 100 µM | [6] > 100 µM | [7] > 100 µM | [14] > 100 µM | [9] > 100 µM | [10] > 100 µM | [11] > 100 µM | [12] 47.8 µM

O=C(c1ccc([N+](=O)[O-])cc1[N+](=O)[O-])N(/N=C/C=C/c1ccccc1)c1nnc(-c2ccccc2)c(-c2ccccc2)n1
inactive: [1] 21 µM | [2] 30.5 µM | [3] 24.3 µM | [4] 25.4 µM | [5] 46 µM | [6] > 100 µM | [7] 30.6 µM | [14] 32.7 µM | [8] 22.8 µM | [9] 30.5 µM | [10] 15.2 µM | [15] 27.3 µM | [11] 31 µM | [12] 20.6 µM

Nc1ncnc2c1ncn2[C@@H]1O[C@H](C(=O)O)[C@@H](O)[C@H]1O [5'-CARBOXY ADENOSINE]
inactive: [1] > 100 µM | [2] > 100 µM | [3] > 100 µM | [4] > 100 µM | [13] > 100 µM | [5] > 100 µM | [16] > 100 µM | [7] > 100 µM | [14] > 100 µM | [17] > 100 µM | [18] > 100 µM | [8] > 100 µM | [9] > 100 µM | [10] > 100 µM | [15] > 100 µM | [11] > 100 µM | [19] > 100 µM | [20] > 100 µM | [12] > 100 µM
